Like-named read-outs stand apart in the source and are kept apart here.
Experiments:
NCI-H295R cells = experiment: alamarBlue cytotoxicity assay, NCI-H295R; format: cell-based; details: Homo sapiens, read-out: NCI-H295R (IC50)
Experimental: (§1) RWPE-1 cells (ATCC: CRL-36O7) were cultured in keratinocyte serum-free media (K-SFM) supplemented with 0.05 mg/mL bovine pituitary extract and 5 ng/mL epidermal growth factor, and 1% penicillin (100 U/mL; Thermo Fisher Scientific, Waltham, MA, USA), and streptomycin (100 μg/mL; GIBCO). […] Passage numbers remained below 30 as per standard procedures. All cell lines were validated and characterized before use to ensure their authenticity and reliability. Routine mycoplasma testing was conducted to confirm that the cells were free from contamination. Additionally, key functional and morphological characteristics were assessed to verify their alignment with previously reported profiles.
(§2) The alamarBlue® assay (Thermo Fisher Scientific, Waltham, MA USA) was conducted as previously described. RWPE-1 cells, HEK-293 cells, and NCI-H295R cells were plated in 96-well plates at 10,000 cells per well and incubated overnight at 37 °C with 5% CO2. […] Cells were incubated for an additional 24 h. Cell viability was measured using the alamarBlue® assay. Post-incubation, 0.05 mg/mL alamarBlue® solution in phosphate-buffered saline (PBS) was added to each well. The plates were incubated in the dark at 37 °C with 5% CO2 for 4 h, and fluorescence was measured at an excitation wavelength of 540 nm and an emission wavelength of 590 nm. Cell viability was calculated relative to the control sample treated with DMSO. All experiments were conducted in triplicate.

RWPE-1 cells = experiment: alamarBlue cytotoxicity assay, RWPE-1; format: cell-based; details: Homo sapiens, read-out: RWPE-1 (IC50)
Experimental: as §1, §2

CYP17A1 17,20-lyase = biological target: T1, CYP17A1 17,20-lyase (Homo sapiens, UniProt P05093); experiment: CYP17A1 17,20-lyase activity assay (DHEA from 17OH-pregnenolone, POR, CYP17A1 and cytochrome b5); format: biochemical; details: for Residual 17,20-lyase activity: % of DMSO control; for Lyase/CYP21A2 Selectivity Index: (% Inhibition Lyase)/(% Inhibition CYP21A2) at 10 µM (SM 10 µg/mL); for inhibition at 10 µM: read-out: % Inhibition CYP17A1-Lyase; for Lyase/OH Selectivity Index: (% Inhibition Lyase)/(% Inhibition OH) at 10 µM (SM 10 µg/mL)
T1 sequence (P05093 1-508): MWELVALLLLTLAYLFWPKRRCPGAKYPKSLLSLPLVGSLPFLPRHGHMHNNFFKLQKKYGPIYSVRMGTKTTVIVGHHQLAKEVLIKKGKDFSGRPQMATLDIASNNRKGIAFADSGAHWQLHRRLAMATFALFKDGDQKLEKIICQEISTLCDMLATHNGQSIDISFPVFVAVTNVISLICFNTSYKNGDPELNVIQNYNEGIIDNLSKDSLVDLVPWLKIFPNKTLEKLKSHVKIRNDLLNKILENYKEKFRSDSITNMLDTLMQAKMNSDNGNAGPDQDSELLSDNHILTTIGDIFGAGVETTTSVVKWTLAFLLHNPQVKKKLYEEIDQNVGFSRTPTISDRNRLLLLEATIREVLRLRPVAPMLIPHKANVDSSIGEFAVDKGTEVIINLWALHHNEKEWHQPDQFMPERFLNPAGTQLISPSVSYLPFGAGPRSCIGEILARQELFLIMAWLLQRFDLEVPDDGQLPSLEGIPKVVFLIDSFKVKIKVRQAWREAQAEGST
Experimental: Assay of CYP17A1 17α-hydroxylase and 17,20-lyase activities were performed as described previously. The 17α-hydroxylase activity was measured by conversion of progesterone to 17OH-progesterone, while production of DHEA from 17OH-pregnenolone was used for monitoring the 17,20-lyase activity of CYP17A1. In vitro CYP17A1 assays were performed using a liposome system consisting of human p450 oxidoreductase (POR) and CYP17A1 at a ratio of 3:4 (POR: CYP17A1). […] The drugs were added to the final mixture and incubated for 1h before the catalytic reaction was initiated by the addition of NADPH to 1 mM final concentration. Radiolabeled [^14C]-progesterone (10,000 cpm in 1 µM) was used as a tracer in each reaction. Steroids were extracted and separated by thin-layer chromatography (TLC) on silica gel (SIL G/UV254) TLC plates (Macherey-Nagel, Oensingen, Switzerland) as previously described.
In vitro CYP17A1 17,20-lyase activity assays were performed using POR, CYP17A1 and cytochrome b5 as described previously. The final assay mixture consisted of proteins, 10 mM MgCl2, 6 mM KOAc, 0.05 mg/mL DLPC, 1 mM reduced glutathione in 50 mM HEPES-NaOH buffer (pH 7.4), and the reaction volume was 200 μL. The drugs were added to the final mixture and incubated for 1h before the catalytic reaction was initiated by the addition of NADPH to 1 mM final concentration. Radiolabeled [^3H]-17OH-pregnenolone (50,000 cpm in 1 µM) was added as a tracer and the enzyme activity was measured by using the scintillation counter in the water release assay.

HEK-293T cells = experiment: alamarBlue cytotoxicity assay, HEK-293T; format: cell-based; details: Homo sapiens, read-out: HEK-293T (IC50)
Experimental: as §1, §2

[1] = cytotoxicity, alamarBlue, 24 h incubation, mean ± SD, three experiments
[2] = RWPE-1, cytotoxicity, alamarBlue, 24 h incubation, mean ± SD, three experiments
[3] = 10 µM (SM extract 10 µg/mL), calculated as 100% − % residual activity

Row | SMILES | IC50 (NCI-H295R cells; 24 h) [nM] | IC50 (RWPE-1 cells; RWPE-1, 24 h) [nM] | Residual 17,20-lyase activity (CYP17A1 17,20-lyase; 10 µM (SM extract 10 µg/mL)) [%] | Lyase/CYP21A2 Selectivity Index (CYP17A1 17,20-lyase) | inhibition at 10 µM (CYP17A1 17,20-lyase) [%] | IC50 (HEK-293T cells; 24 h) [nM] | IC50 (NCI-H295R cells; [1]) [nM] | IC50 (RWPE-1 cells; [2]) [nM] | inhibition at 10 µM (CYP17A1 17,20-lyase; [3]) [%] | Lyase/OH Selectivity Index (CYP17A1 17,20-lyase) | IC50 (HEK-293T cells; [1]) [nM]
1 | Cc1cccc2c3c(ccc12)C1=C(C(=O)C3=O)[C@@H](C)CO1 [DT, dihydrotanshinone I] | 950 ± 480 | 1400 ± 420 | 43 | 3.80 | 56.6 | 1310 ± 470 | – | – | – | – | –
2 | Cc1coc2c1C(=O)C(=O)c1c-2ccc2c1CCCC2(C)C [TAII, tanshinone IIA] | – | – | 57 | High ^c | – | – | 1200 ± 3440 | 4500 ± 11800 | 43 | High ^c | 2260 ± 1920
3 | Cc1coc2c1C(=O)C(=O)c1c-2ccc2c(C)cccc12 [TAI, tanshinone I] | – | – | 72 | High ^c | – | – | 1130 ± 630 | 2270 ± 3250 | 28.2 | High ^c | 1080 ± 260

From article PMC12838644, “Dihydrotanshinone as a Natural Product-Based CYP17A1 Lyase Inhibitor for Hyperandrogenic Disorders” (Biomolecules, 2026)
